According to PubChem BioAssay AID464 (The Scripps Research Institute Molecular Screening Center, 2006):
Activity calls are given as the source filed them.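 The calls were made as follows: active = Compounds that kill half the cells at a concentration of 5 micromolar or below, from the fitted or estimated CC50; inactive = CC50 above 5 micromolar.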

System: Jurkat E6.1 viability, ATP luminescence, 48 h
Test: Jurkat E6.1 cell cytotoxicity, CC50 determination, dose response, cytotoxicity control, ATP luminescence, 48 h, 60K MLSMR (AID 464)

| Structure (SMILES) | CC50 |
| --- | --- |
| COc1cccc(C(=O)Nc2ncc3c(n2)CC(c2ccc(OC)cc2OC)CC3=O)c1 (configuration not stated) | 8.19 µM (inactive) |
| N#CC1=C2SCC(O)(c3ccccc3)N2C(=O)CC1c1cccs1 (configuration not stated) | 0.361 µM |
| COc1cccc2sc(Nc3nnc(-c4ccccc4Cl)o3)nc12 | 1.13 µM |
| c1ccc(-c2nc(N3CCCCCC3)c3ccccc3n2)nc1 | 10.1 µM (inactive) |
| O=C(Nc1ccn(-c2ccccc2)n1)c1ccc(S(=O)(=O)N2CCCCCC2)cc1 | 19.8 µM (inactive) |
| CC(C)c1cc(C(=O)Nc2cc(Cl)ccc2O)no1 | > 40 µM (inactive) |
| COc1ccc(-c2n[nH]c(C)c2-c2ccc(OC)c(OC)c2)c(O)c1 | > 4.4 µM (inactive) |
| CCCCOc1ncnc2c1[nH]c1ccccc12 | 5.71 µM (inactive) |
| C=CCN(CC=C)S(=O)(=O)c1ccc2nc(NC(=O)C(C)C)sc2c1 | 3.72 µM |
| Clc1ccc(C2=Nn3c(nnc3-c3n[nH]c4c3CCC4)SC2)cc1 | 1.64 µM |
| Cc1ccc(S(=O)(=O)C2(S(=O)(=O)c3ccc(C)cc3)CCCC2)cc1 | 3.23 µM |
| C=CCn1c(SCc2c(C)noc2C)nc2cc(C(=O)O)ccc2c1=O | 3.4 µM |
| CCN(CC)c1ccc(NC(=O)c2cc(OC)cc(OC)c2)c(C)c1 | 1.11 µM |
| COc1cccc2sc(Nc3nc(-c4ccccn4)cs3)nc12 | 2.81 µM |
| Cn1nc(-c2ccc(OCC(=O)N3CCN(Cc4ccccc4)CC3)cc2)c2ccccc2c1=O | 9.14 µM (inactive) |
| Cc1cc(Cl)ccc1OCCCC(=O)NO | 8.2 µM (inactive) |
| O=C(c1cc(-c2ccc(O)cc2)on1)N1CCc2ccccc2C1 | > 40 µM (inactive) |
| CC(=O)c1cc2c(cc1NS(=O)(=O)c1ccc(C)cc1)OCCO2 | 5.05 µM (inactive) |
| CSC(=Nc1ccccc1)c1c(O)n(C)c(=O)n(C)c1=O | 17.8 µM (inactive) |
| O=C(Nc1nc(-c2ccccn2)cs1)c1ccc(S(=O)(=O)N2CCCCC2)cc1 | 8.99 µM (inactive) |
| O=C1C2C3C=CC(CO)(O3)C2C(=O)N1c1ccccc1-c1ccccc1 (configuration not stated) | 6.29 µM (inactive) |

| Structure (SMILES) | CC50 |
| --- | --- |
| CCC(C)c1ccc(NC(=O)C2CCCN(c3ncccn3)C2)cc1 (configuration not stated) | 10.4 µM (inactive) |
| Cc1cc(NC(=O)CSc2nc(-c3ccco3)cc(C(F)(F)F)n2)n(-c2ccccc2)n1 | 4.28 µM |
| C=CCNc1nc2c(c(=O)n(C)c(=O)n2C)n1CCCCCC | 2.76 µM |
| COc1ccc(CNc2cc(C)nc3ncnn23)c(OC)c1 | 3.25 µM |
| COc1ccc(N(CC(=O)Nc2cc(Cl)ccc2OC)S(=O)(=O)c2c(C)noc2C)cc1 | 2.97 µM |
| O=C(Nc1ccccc1)N1CCC(c2nc(-c3ccc(S(=O)(=O)N4CCOCC4)cc3)no2)CC1 | > 40 µM (inactive) |
| Nc1nc(-c2ccccc2)cc(N2CCCCC2)n1 | 0.877 µM |
| Cc1ccc2cc(CN(Cc3ccco3)C(=O)c3cccs3)c(=O)[nH]c2c1 | 2.6 µM |
| Cc1cc(C)n2nc(SCC(=O)c3cc(C)n(-c4cc(C)on4)c3C)nc2n1 | 29.4 µM (inactive) |
| Cc1cc(C)n(-c2ccc(C(=O)Nc3ccc(S(=O)(=O)NCc4ccco4)cc3)cc2)n1 | 5.24 µM (inactive) |
| COc1ccccc1NC(=O)N(Cc1ccco1)Cc1cc2ccc(C)c(C)c2[nH]c1=O | 1.81 µM |
| Oc1c(CN2CCN(c3ccccn3)CC2)cc(Cl)c2cccnc12 | 2.85 µM |
| COc1ccc(Nc2oc(-c3ccccc3Cl)nc2C#N)cc1 | 1.42 µM |
| CCOC(=O)C1=C(CNCc2ccc(C)cc2)NC(=O)NC1c1ccc(OC)cc1 (configuration not stated) | > 40 µM (inactive) |
| CCCN1CCN(c2ncnc3c2nnn3Cc2ccccc2)CC1 | 9.22 µM (inactive) |
| CCc1ccc2nc(NC(=O)c3cc(C)on3)sc2c1 | 3.71 µM |
| CSCc1nnc(NC(=O)c2ccc(S(=O)(=O)N(CC(C)C)CC(C)C)cc2)o1 | 21.1 µM (inactive) |
| CCOC(=O)c1[nH]c(C)c(C(=O)c2cc(F)ccc2F)c1C | 0.204 µM |
| COc1ccccc1C1C=C(c2ccc(C)cc2)Nc2nnnn21 (configuration not stated) | > 40 µM (inactive) |
| COc1cc(C2C(C#N)=C(C)NC3=C2C(=O)c2ccccc23)cc(OC)c1OC (configuration not stated) | 3.48 µM |
| COc1cccc(C(=O)/C=C/Nc2cc(C)ccc2O)c1 | 2.95 µM |
